Reference: patent US6794408B2, “Drechsleranol derivatives, processes for their preparation and their use” (Aventis Pharma Deutschland GmbH, priority 2002, dated 2004)

Legend:
[1] = target: JNK-3 (Homo sapiens, UniProt P53779); test: JNK-3 assay (HTRF, JNK-3/GST-ATF2); format: biochemical; settings: ATP 15 μM, 37° C., 20 minutes
Experimental: The assay is carried out on a CyBio pipetter system in a 384-hole plate format. The assay contains 10 μL of sample (extract or pure substance, for example a compound of formula (II) or of formula (III)) in 3% DMSO, 10 μL of an enzyme/substrate mixture (JNK-3/GST-ATF2) and 10 μL of ATP in a final volume of 30 μL. After incubation at 37° C. for 20 minutes, 50 μL of the HTRF antibody mixture (XL665-anti-GST/(Eu)cryptate anti-P-ATF2) are added. After 120 minutes at room temperature, the signal emission of the energy transfer and of europium at 665 and 615 nm is measured after the samples have been stimulated at 340 nm in a Victor^2 (WALLAC).
Buffer I for the Dilution of JNK3, GST-ATF2, ATP:
Buffer II for the Dilution of the HTRF Reagents:
Each plate contains 16 positive controls (maximum energy transfer, buffer I instead of samples), 8 blank controls (minimum energy transfer, buffer II instead of ATP) and 8 holes which contain EDTA 200 μM.
The results are calculated as follows:
Firstly, the signal ratio=(intensity (665 nm)/intensity (615 nm)) is determined. A blank correction is then made using the following formula:
delta F(%)=[(ratio (sample)−ratio(minimum))/(ratio (minimum))]×100
The activity of the samples is then calculated in the following manner:
Inhibition (%)=100×[1−(delta F(sample)/delta F(maximum))]

[2] = target: hCK1ε (Homo sapiens, UniProt P49674); test: hCK1ε assay (33P-ATP, casein-coated plates); format: biochemical; settings: 0.4 μM cold ATP, 37° C., one hour
Experimental: The assay is carried out in a Jobi-Well (CyBio) and Biomek 2000 pipetter system in the 384-hole plate format. The 384-hole plates are coated with 50 μL per well of a casein solution of the concentration 100 μg/mL in coating buffer (corresponds to 5 μg of casein per well, casein Sigma) and stored overnight at 4° C. Washing four times with 90 μL of wash solution 1 (50 mM HEPES pH 7.4 and 150 mM NaCl) is then carried out. The reaction is carried out in a final volume of 50 μL. During the course of this, 10 μL of dilute natural substance extract in each case, for example a compound of formula (II) or a compound of formula (III), 20 μL of hCK1ε enzyme solution (corresponds to 29 ng of […] per well) and 20 μL of ATP solution (final concentration: 0.4 μCi of ^33P-γ-ATP radiolabeled (“hot”) and 0.4 μM of cold ATP per well) are pipetted onto the coated plates. The plates are then incubated at 37° C. for one hour. The plates are then washed four times with 75 μL of wash solution 2 (phosphoric acid, 3%) and measured for 30 seconds in a MicroBeta Trilux counter (WALLAC).
hCK1ε Enzyme Solution: 1.45 μg of Recombinant hCK1ε per mL of Kinase Buffer
ATP Solution: 20 μCi/mL of ^33P-γ-ATP and 1 μM of Cold ATP […]
The inhibition of a sample can be calculated according to the following formula: […]

Chain of JNK-3 (P53779 whole entry): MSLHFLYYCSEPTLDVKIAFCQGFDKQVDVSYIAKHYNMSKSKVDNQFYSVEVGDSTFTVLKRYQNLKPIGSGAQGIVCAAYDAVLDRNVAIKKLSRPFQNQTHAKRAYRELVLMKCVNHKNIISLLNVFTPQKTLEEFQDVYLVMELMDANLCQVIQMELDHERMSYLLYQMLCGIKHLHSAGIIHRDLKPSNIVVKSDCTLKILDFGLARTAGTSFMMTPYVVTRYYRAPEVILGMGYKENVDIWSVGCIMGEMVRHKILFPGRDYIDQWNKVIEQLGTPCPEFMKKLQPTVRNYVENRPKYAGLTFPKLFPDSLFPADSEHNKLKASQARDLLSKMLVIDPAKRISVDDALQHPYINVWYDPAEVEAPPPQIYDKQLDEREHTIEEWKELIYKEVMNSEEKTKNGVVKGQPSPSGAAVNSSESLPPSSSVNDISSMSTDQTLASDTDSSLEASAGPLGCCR
Chain of hCK1ε (P49674 whole entry): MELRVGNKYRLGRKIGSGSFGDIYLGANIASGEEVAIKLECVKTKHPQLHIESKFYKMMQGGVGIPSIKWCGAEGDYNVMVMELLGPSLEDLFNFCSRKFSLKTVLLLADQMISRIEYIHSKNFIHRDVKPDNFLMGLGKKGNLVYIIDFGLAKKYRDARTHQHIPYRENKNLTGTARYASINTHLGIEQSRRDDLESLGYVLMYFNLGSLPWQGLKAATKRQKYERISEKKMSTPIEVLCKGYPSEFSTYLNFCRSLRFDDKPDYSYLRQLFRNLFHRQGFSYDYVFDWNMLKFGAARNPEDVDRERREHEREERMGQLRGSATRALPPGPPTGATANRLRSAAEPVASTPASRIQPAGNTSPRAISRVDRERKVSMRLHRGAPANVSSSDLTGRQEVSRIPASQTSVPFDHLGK

IC50 [1] [µM]	IC50 [2] [µM]	Structure (SMILES)
2.8	–	Oc1cccc2ccc3c4ccc5cccc(O)c5c4oc3c12 [Compound III]
1.1	2.9	OCC(O)C(O)C(O)C(O)C(O)c1cc2c3ccc4cccc(O)c4c3oc2c2c(O)cccc12 (stereo not drawn) [Compound II]
